Holding throughout (format): biochemical
The target in one test is Human PDE4A3 (Homo sapiens (Human), UniProt P27815). Kind of test: PDE4A3 Scintillation Proximity Assay (SPA), inhibition of enzyme activity. As to conditions: Table 9, geometric mean of 2-9 determinations unless otherwise indicated, read-out: Human PDE4A FL. Here is the method:
(§1) The PDE4A, PDE4B, PDE4C and PDE4D binding affinity for the compounds of the present invention was determined utilizing the following biological assay(s):
(§2) The recombinant Bacmid was isolated and used to transfect insect cells to generate a viral stock. To generate cell paste for purification, insect cells were infected with the virus stock and cells were harvested 72 hours after infection. Insect cell paste was lysed and after centrifugation, the supernatant was batch bound to Ni-NTA agarose (GE Healthcare) and eluted with 250 mM imidazole. This eluate was diluted with FLAG buffer (50 mM Tris HCL pH 7.5, 100 mM NaCl, 5% Glycerol, 1 mM TCEP with protease inhibitors) and batch bound to ant-FLAG M2 agarose (Sigma) overnight at 4° C. The agarose was packed into a column, washed with buffer and eluted with buffer containing elute using 250 ug/ml Flag-peptide. Fractions were analyzed using SDS-PAGE Coomassie blue staining and pooled based on purity. Pooled fractions were chromatographed on a S200 120 ml column (GE Healthcare) in 50 mM Tris HCL pH 7.5, 150 mM NaCl, 10% Glycerol, 2 mM TCEP with protease inhibitors. PDE4A3 fractions were analyzed by SDS-PAGE Coomassie blue staining, pooled based on purity, dialyzed against 50 mM Tris HCL pH 7.5, 100 mM NaCl, 20% Glycerol, 2 mM TCEP, frozen and stored at −80° C.
(§3) The PDE4A3, PDE4B1, PDE4C1 and PDE4D3 assays use the Scintillation Proximity Assay (SPA) technology to measure the inhibition of human recombinant PDE4A1, PDE4B3, PDE4C1, and PDE4D3 enzyme activity by compounds in vitro. The PDE4A1, PDE4B3, PDE4C1, and PDE4D3 assays are run in parallel using identical parameters, except for the concentration of enzyme ([…]). The assays are performed in a 384-well format with 50 uL assay buffer (50 mM TRIS pH7.5; 1.3 mM MgCl2; 0.01% Brij) containing enough PDE4A3, PDE4B1, PDE4C1, and PDE4D to convert ˜20% of substrate (1 μM cAMP consisting of 20 nM 3H-cAMP+[…] cold cAMP) and a range of inhibitors. Reactions are incubated for 30 min at 25° C. The addition of 20 uL of 8 mg/ml yitrium silicate SPA beads (Perkin Elmer) stops the reaction. The plates are sealed (TopSeal, Perkin Elmer) and the beads are allowed to settle for 8 hrs, after which they are read on the Trilux Microbeta overnight.
A general note: Scintillation proximity formats need no separation of bound from free tracer.

Another test addresses Human PDE4C1 (Homo sapiens (Human), UniProt Q08493). Kind of test: PDE4C1 Scintillation Proximity Assay (SPA), inhibition of enzyme activity. As to conditions: Table 9, geometric mean of 2-9 determinations unless otherwise indicated, read-out: Human PDE4C FL. The method, then: as §1
as §2, with “PDE4C1” for “PDE4A3”
as §3

The next test addresses human PDE4D3 (Homo sapiens (Human), UniProt Q08499). Description: PDE4D3 Scintillation Proximity Assay (SPA), inhibition of enzyme activity. The following applies: Table 9, geometric mean of 2-9 determinations unless otherwise indicated, read-out: Human PDE4D FL. The method, then:
as §1
A portion of the human PDE4D3 coding sequence (amino acids 50 to 672 from the sequence with accession number Q08499-2) was cloned into the baculovirus expression vector pFastBac (Invitrogen) engineered to include a C-terminal His6 affinity tag to aid in purification as described in Seeger, T. F. et al., Brain Research 985 (2003) 113-126. The recombinant Bacmid was isolated and used to transfect insect cells to generate a viral stock. To generate cell paste for purification, insect cells were infected and cells were harvested 72 hours after infection. Insect cell paste was lysed and after centrifugation, the supernatant was chromatographed on Ni-NTA agarose (Qiagen) as described in Seeger, T. F. et al., Brain Research 985 (2003) 113-126. Ni-NTA agarose eluting fractions containing PDE4 were pooled, diluted with Q Buffer A (50 mM Tris HCl pH 8, 4% glycerol, 100 mM NaCl, 1 mM TCEP, Protease inhibitors EDTA-free (Roche)) to reduce NaCl to ˜200 mM, and loaded on a Q Sepharose (GE Healthcare) column. After washing with Q buffer A to baseline, PDE4D was eluted with a gradient from 10% to 60% of Buffer B (50 mM Tris HCl pH 8, 1 M NaCl, 4% glycerol, 1 mM TCEP). PDE4D fractions were analyzed by SDS-PAGE Coomassie blue staining, pooled based on purity, frozen and stored at −80° C.
as §3

In a further test the target is Human PDE4B1 (Homo sapiens (Human), UniProt Q07343, S133E/S654A/S659A/S661A). Kind of test: PDE4B1 Scintillation Proximity Assay (SPA), inhibition of enzyme activity. The following applies: Table 9, geometric mean of 2-9 determinations unless otherwise indicated, read-out: Human PDE4B FL. The method, then:
as §1
The recombinant Bacmid was isolated and used to transfect insect cells to generate a viral stock. To generate cell paste for purification, insect cells were infected with the virus stock and cells were harvested 72 hours after infection as described in Seeger, T. F. et al., Brain Research 985 (2003) 113-126. Insect cell paste was lysed and after centrifugation, the supernatant was chromatographed on Ni-NTA agarose (Qiagen) as described in Seeger, T. F. et al., Brain Research 985 (2003) 113-126. Ni-NTA agarose eluting fractions containing PDE4 were pooled, diluted with Q buffer A (20 mM Tris HCl pH 8, 5% glycerol, 1 mM TCEP) to reduce NaCl to ˜100 mM and loaded on a Source 15Q (GE Healthcare) column. After washing with Q buffer A/10% buffer B to baseline, PDE4D was eluted with a gradient from 10% to 60% of Buffer B (20 mM Tris HCl pH 8, 1 M NaCl, 5% glycerol, 1 mM TCEP). PDE4D fractions were analyzed by SDS-PAGE Coomassie blue staining, pooled based on purity, frozen and stored at −80° C.
as §3

Human PDE4C1, sequence (Q08493 2-712): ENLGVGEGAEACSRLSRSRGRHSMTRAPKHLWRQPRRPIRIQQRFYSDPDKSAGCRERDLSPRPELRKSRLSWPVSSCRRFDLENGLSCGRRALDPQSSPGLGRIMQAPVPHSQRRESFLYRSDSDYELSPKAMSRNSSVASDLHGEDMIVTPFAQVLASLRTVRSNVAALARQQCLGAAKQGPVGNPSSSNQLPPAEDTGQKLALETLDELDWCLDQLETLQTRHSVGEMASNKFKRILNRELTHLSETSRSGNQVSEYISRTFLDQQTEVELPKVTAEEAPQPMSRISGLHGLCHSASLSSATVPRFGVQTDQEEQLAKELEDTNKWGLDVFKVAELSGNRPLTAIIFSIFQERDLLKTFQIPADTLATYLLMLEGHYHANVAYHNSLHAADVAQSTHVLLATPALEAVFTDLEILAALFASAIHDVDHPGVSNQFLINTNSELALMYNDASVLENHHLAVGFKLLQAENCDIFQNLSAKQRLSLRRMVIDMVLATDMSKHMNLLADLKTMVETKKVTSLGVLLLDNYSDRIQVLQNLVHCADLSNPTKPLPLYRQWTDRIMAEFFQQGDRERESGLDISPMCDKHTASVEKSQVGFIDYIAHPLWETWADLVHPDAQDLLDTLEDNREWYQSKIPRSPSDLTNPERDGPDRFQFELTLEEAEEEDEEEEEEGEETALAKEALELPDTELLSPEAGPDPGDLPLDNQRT
human PDE4D3, sequence (Q08499 186-808): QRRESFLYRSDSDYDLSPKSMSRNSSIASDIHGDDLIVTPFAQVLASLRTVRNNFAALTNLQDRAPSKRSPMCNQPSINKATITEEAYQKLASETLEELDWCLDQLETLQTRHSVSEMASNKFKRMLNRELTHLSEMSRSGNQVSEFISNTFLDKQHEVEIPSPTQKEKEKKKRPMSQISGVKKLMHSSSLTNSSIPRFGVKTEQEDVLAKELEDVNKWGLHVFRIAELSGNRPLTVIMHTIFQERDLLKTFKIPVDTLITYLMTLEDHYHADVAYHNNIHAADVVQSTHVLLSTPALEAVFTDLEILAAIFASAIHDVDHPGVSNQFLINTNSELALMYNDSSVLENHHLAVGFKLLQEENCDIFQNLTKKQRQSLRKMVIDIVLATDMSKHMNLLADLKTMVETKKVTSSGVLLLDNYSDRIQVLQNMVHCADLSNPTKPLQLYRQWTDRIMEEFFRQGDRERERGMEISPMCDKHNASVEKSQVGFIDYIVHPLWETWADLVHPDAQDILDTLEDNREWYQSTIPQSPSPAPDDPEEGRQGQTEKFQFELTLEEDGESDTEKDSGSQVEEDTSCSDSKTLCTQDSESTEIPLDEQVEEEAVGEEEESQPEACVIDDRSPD
Human PDE4A3, sequence (P27815 other isoform, or with tags, fused parts or gaps): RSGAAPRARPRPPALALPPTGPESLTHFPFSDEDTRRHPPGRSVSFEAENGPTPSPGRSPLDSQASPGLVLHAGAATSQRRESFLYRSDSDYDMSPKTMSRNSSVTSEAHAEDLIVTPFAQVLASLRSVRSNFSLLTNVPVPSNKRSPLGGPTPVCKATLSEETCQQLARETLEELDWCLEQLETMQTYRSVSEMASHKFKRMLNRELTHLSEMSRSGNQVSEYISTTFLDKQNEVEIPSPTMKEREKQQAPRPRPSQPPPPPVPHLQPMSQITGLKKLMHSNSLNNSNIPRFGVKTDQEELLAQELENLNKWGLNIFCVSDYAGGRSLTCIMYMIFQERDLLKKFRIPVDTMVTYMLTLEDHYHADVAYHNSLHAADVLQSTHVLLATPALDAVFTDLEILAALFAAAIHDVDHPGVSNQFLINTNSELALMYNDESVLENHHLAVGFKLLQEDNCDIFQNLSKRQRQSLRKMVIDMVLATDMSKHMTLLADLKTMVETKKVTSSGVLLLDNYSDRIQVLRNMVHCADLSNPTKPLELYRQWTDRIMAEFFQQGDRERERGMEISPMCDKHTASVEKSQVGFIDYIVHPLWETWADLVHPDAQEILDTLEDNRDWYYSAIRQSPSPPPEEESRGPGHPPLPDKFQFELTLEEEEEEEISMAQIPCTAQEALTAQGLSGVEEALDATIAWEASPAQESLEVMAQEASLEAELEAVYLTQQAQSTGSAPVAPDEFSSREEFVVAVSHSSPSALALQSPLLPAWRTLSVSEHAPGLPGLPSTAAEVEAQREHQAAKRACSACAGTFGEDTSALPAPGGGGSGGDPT
Human PDE4B1, sequence (Q07343 122-736 S133E/S654A/S659A/S661A): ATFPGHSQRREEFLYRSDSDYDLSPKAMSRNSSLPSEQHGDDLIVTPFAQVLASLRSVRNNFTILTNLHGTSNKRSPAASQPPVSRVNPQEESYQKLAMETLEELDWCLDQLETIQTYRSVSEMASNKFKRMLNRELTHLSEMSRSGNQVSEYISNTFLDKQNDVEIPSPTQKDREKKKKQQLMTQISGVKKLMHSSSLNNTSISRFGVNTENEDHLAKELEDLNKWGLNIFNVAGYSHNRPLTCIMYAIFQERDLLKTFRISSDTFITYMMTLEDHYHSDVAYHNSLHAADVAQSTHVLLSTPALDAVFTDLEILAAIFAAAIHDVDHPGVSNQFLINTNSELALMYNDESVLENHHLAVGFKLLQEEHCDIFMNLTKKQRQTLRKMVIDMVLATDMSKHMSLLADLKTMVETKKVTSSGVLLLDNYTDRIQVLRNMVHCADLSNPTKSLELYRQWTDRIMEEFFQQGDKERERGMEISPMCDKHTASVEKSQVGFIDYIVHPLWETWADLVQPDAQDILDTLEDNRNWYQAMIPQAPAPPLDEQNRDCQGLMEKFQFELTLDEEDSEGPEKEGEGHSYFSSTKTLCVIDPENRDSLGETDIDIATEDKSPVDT

As for `Cc1cc(C#N)c(F)cc1-c1c2c(n3c1C(=O)N(C1CC1)CC3)CCCO2` [Example 16, 4-(8-Cyclopropyl-9-oxo-3,4,6,7,8,9-hexahydro-2H-pyrano[2′,3′:4,5]pyrrolo[1,2-a]pyrazin-10-yl)-2-fluoro-5-methylbenzonitrile], the IC50 turned out to be 1.57 nM at Human PDE4A3, 15.2 nM at Human PDE4C1, 45.5 nM on human PDE4D3 and 1.78 nM on Human PDE4B1.

`O=C1c2c(-c3ccc(Cl)cc3)c3nccnc3n2CCN1C1CC1` [Example 18, 10-(4-Chlorophenyl)-8-cyclopropyl-7,8-dihydropyrrolo[1,2-a:4,5-b′]dipyrazin-9(6H)-one]: the IC50 stood at 4.12 nM at Human PDE4A3, 24.4 nM on Human PDE4C1, 345 nM on human PDE4D3 and 10.2 nM at Human PDE4B1.

For `Cc1ccc(-c2c3n(c4cccnc24)CCN(C2CC2)C3=O)cc1` [Example 20, 8-Cyclopropyl-10-(4-methylphenyl)-7,8-dihydropyrido[2′,3′:4,5]pyrrolo[1,2-a]pyrazin-9(6H)-one], the IC50 came out at 2.52 nM at Human PDE4A3, 11.5 nM on Human PDE4C1, 465 nM at human PDE4D3 and 4.88 nM at Human PDE4B1.

As to `Cc1ncc(-c2c3n(c4cccnc24)CCN(C2CC2)C3=O)cn1` [Example 21, 8-Cyclopropyl-10-(2-methylpyrimidin-5-yl)-7,8-dihydropyrido[2′,3′:4,5]pyrrolo[1,2-a]pyrazin-9(6H)-one], the IC50 at Human PDE4A3 turned out to be 8.6 nM; at Human PDE4C1, 132 nM; on human PDE4D3, 4340 nM; on Human PDE4B1, 75.9 nM.

Take `N#Cc1ccc(-c2c3n(c4cccnc24)CCN(C2CC2)C3=O)c(F)c1` [Example 22, 4-(8-Cyclopropyl-9-oxo-6,7,8,9-tetrahydropyrido[2′,3′:4,5]pyrrolo[1,2-a]pyrazin-10-yl)-3-fluorobenzonitrile]: the IC50 worked out at 7.47 nM at Human PDE4A3, 20.2 nM on Human PDE4C1, 872 nM on human PDE4D3 and 11.3 nM at Human PDE4B1.

Take `O=C1c2c(-c3ccc(F)cc3)c3ncccc3n2CCN1C1CC1` [Example 23, 8-Cyclopropyl-10-(4-fluorophenyl)-7,8-dihydropyrido[2′,3′:4,5]pyrrolo[1,2-a]pyrazin-9(6H)-one]: the IC50 at Human PDE4A3 worked out at 13 nM; on Human PDE4C1, 82 nM; at human PDE4D3 it was 321 nM; at Human PDE4B1, 3.13 nM.

With `COc1c(F)cc(-c2c3n(c4cccnc24)CCN(C2CC2)C3=O)cc1F` [Example 24, 8-Cyclopropyl-10-(3,5-difluoro-4-methoxyphenyl)-7,8-dihydropyrido[2′,3′:4,5]pyrrolo[1,2-a]pyrazin-9(6H)-one], the IC50 came out at 4.48 nM on Human PDE4A3, 24.5 nM at Human PDE4C1, 125 nM on human PDE4D3 and 2.94 nM on Human PDE4B1.

As for `O=C1c2c(-c3ccc(Cl)cc3)c3ncncc3n2CCN1C1CC1` [Example 25, 10-(4-Chlorophenyl)-8-cyclopropyl-7,8-dihydropyrazino[1′,2′:1,5]pyrrolo[3,2-d]pyrimidin-9(6H)-one], the IC50 at Human PDE4A3 is 25 nM; at Human PDE4C1, 100 nM; on human PDE4D3, 1780 nM; on Human PDE4B1, 48.2 nM.

For `N#Cc1ccc(-c2c3n(c4cccnc24)CCN(C2CC2)C3=O)cn1` [Example 26, 5-(8-Cyclopropyl-9-oxo-6,7,8,9-tetrahydropyrido[2′,3′:4,5]pyrrolo[1,2-a]pyrazin-10-yl)pyridine-2-carbonitrile], the IC50 on Human PDE4A3 was found to be 8.15 nM; on Human PDE4C1, 14.8 nM; at human PDE4D3, 138 nM; on Human PDE4B1, 2.98 nM.

Take `O=C1c2c(-c3ccc(Cl)cc3)c3ncsc3n2CCN1C1CC1` [Example 27, 9-(4-Chlorophenyl)-7-cyclopropyl-6,7-dihydro[1,3]thiazolo[4′,5′:4,5]pyrrolo[1,2-a]pyrazin-8(5H)-one]: the IC50 stood at 2.28 nM at Human PDE4A3, 9.03 nM on Human PDE4C1, 434 nM at human PDE4D3 and 3.04 nM on Human PDE4B1.

Regarding `Cc1cc(C#N)c(F)cc1-c1c2n(c3scnc13)CCN(C1CC1)C2=O` [Example 28, 4-(7-Cyclopropyl-8-oxo-5,6,7,8-tetrahydro[1,3]thiazolo[4′,5′:4,5]pyrrolo[1,2-a]pyrazin-9-yl)-2-fluoro-5-methylbenzonitrile], the IC50 on Human PDE4A3 amounted to 3.92 nM; on Human PDE4C1 it was 21 nM; at human PDE4D3 it was 85.7 nM; on Human PDE4B1, 2.14 nM.

As for `Cc1cc(Cl)c(F)cc1-c1c2c(n3c1C(=O)N(C1CC1)CC3)CCCO2` [Example 29, 10-(4-Chloro-5-fluoro-2-methylphenyl)-8-cyclopropyl-3,4,7,8-tetrahydro-2H-pyrano[2′,3′:4,5]pyrrolo[1,2-a]pyrazin-9(6H)-one], the IC50 at Human PDE4A3 came to 1 nM; on Human PDE4C1, 2.45 nM; on human PDE4D3, 12.7 nM; at Human PDE4B1 it was 1 nM.

For `O=C1c2c(-c3ccc(Cl)c(F)c3)c3ncccc3n2CCN1C1CC1` [Example 32, 10-(4-Chloro-3-fluorophenyl)-8-cyclopropyl-7,8-dihydropyrido[2′,3′:4,5]pyrrolo[1,2-a]pyrazin-9(6H)-one], the IC50 at Human PDE4A3 was less than 0.45 nM; on Human PDE4C1, 1.44 nM; at human PDE4D3, 9.07 nM; at Human PDE4B1, less than 0.7 nM.

The values above are taken from patent publication US11472805B2, “Tricyclic compounds and their use as phosphodiesterase inhibitors” (Pfizer Inc., priority 2015, dated 2022).
